In this assay the test system is Aedes aegypti. The assay can be described thus: Warm Body Assay, in-vitro repulsion of mosquitoes. The note with it: 100% at concentration 0. The method, then: The arthropod controlling effect according to the present invention is determined on mosquitoes using an adapted Warm Body assay as defined in Kröber T, Kessler S, Frei J, Bourquin M, Guerin P M. An in vitro assay for testing mosquito controlling compounds employing a warm body and carbon dioxide as a behavioral activator. J Am Mosq Control Assoc. 2010; 26:381-386.
The controlling effect according to the present invention is determined by testing the Warm Body assay against the yellow fever mosquito, Aedes aegypti Rockefeller strain. […] Observations of controlling efficacy were made on host-seeking females of uniform age, 5 to 10 days old selected as mentioned in the publication mentioned hereinabove. Tested hungry females had access to 10% sugar solution but were not blood-fed.
(§1) The published protocol has been adapted in not manually counting the landing mosquitoes but automatically using an automatic counting software, the switch from Anopheles gambiae to A. aegypti led to a decrease of mosquitoes' number placed in the tested cage due to the size difference (i.e. 30 mosquitoes instead of 50) and to an increase of lighting as A. aegypti is a diurnal mosquitoes (i.e. 150 lux instead of 4 lux).
The controlling efficacy in vitro was by an adapted Warm Body assay as defined in Kröber T, Kessler S, Frei J, Bourquin M, Guerin P M. An in vitro assay for testing mosquito controlling compounds employing a warm body and carbon dioxide as a behavioral activator. J Am Mosq Control Assoc. 2010; 26:381-386. The controlling effect according to the present invention is determined by testing the Warm Body assay against the yellow fever mosquito, A. aegypti Rockefeller strain.
as §1, with “Observations of controlling efficacy were made on host-seeking females of uniform age, 5 to 10 days old selected as mentioned in the publication mentioned hereinabove. Tested hungry females had access to 10% sugar solution but were not blood-fed. The” for “The”
In this in-vitro assay the number of A. aegypti landing on a warm body treated with the tested stimuli was measured in order to assess the repellency effect. […]

Consider `CCN(CC)C(=O)c1cccc(C)c1` [DEET, N,N-diethyl-3-methylbenzamide], for which the “Mean ± SD of normalized repulsion of mosquitoes Aedes aegypti” value is recorded as 90% ± 9% (concentration 0.016 mg/mL); 42% ± 7% (concentration 0.08 mg/mL); 11% ± 5% (concentration 0.4 mg/mL); 2% ± 1% (concentration 2 mg/mL); 3% ± 3% (concentration 10 mg/mL).
Regarding `CCCCN(CCC(=O)OCC)C(C)=O` [IR3535, ethyl butylacetylaminopropionate], the “Mean ± SD of normalized repulsion of mosquitoes Aedes aegypti” value (concentration 0.016 mg/mL) was 103% ± 20%; the “Mean ± SD of normalized repulsion of mosquitoes Aedes aegypti” value (concentration 0.08 mg/mL) is 108% ± 14%; the “Mean ± SD of normalized repulsion of mosquitoes Aedes aegypti” value (concentration 0.4 mg/mL) was 31% ± 5%; the “Mean ± SD of normalized repulsion of mosquitoes Aedes aegypti” value (concentration 2 mg/mL) is reported as 22% ± 9%; the “Mean ± SD of normalized repulsion of mosquitoes Aedes aegypti” value (concentration 10 mg/mL) is reported as 11% ± 2%.

For the origin of these results see patent publication US20220142158A1, “ARTHROPOD CONTROL COMPOSITIONS” (FIRMENICH SA, priority 2019, published 2022).
